Test results taken from ChEMBL document CHEMBL5728742, “Pyrrolo-pyridine derivative compound, method for preparing same, and pharmaceutical composition containing same as active ingredient for prevention or treatment of protein kinase-related diseases” (2021).

Target: Dual specificity tyrosine-phosphorylation-regulated kinase 1A (Homo sapiens, UniProt Q13627)
Test: Then, DYRK1A kinase was added thereto, followed by mixing well. Each compound of Examples was added thereto by using acoustic technology (Echo550; nanoliter range). […] After reacting at room temperature for 2 hours, spotting was performed on P81 exchange paper. Upon completion of the reaction, kinase activity was detected using a filter-binding method.

IC50: > 0.1 µM
SMILES: CCNc1cc(Nc2cc(F)c(C(=O)NC3CCN(C)CC3)cc2OC)nc2[nH]cc(C(F)(F)F)c12
